Assay results as given in ChEMBL document CHEMBL5608234, “Heat Shock Protein 90 Interactome-Mediated Proteolysis Targeting Chimera (HIM-PROTAC) Degrading Glutathione Peroxidase 4 to Trigger Ferroptosis” (J Med Chem, 2024).
Calls of active or inactive are those of the source. The rule behind the calls is not given here.

How the values were obtained:
[1] = HIM-PROTAC activity at GPX4/HSP90/E3 ligase in human HT-1080 cells assessed as reduction in GPX4 level incubated for 24 hrs by Western blotting analysis; type: cell-based; details: HT-1080, 24 h
B16-F10 = assay: HIM-PROTAC activity at GPX4/HSP90/E3 ligase in mouse B16-F10 cells assessed as reduction in GPX4 level at 0.1 to 3 uM incubated for 24 hrs by Western blotting analysis; type: cell-based; details: dose 0.1-3 µM
HT-1080 [2] = assay: Antitumor activity against human HT-1080 cells xenografted in ip dosed BALB/c mouse assessed as tumor growth suppression administered once daily; type: functional, organism-based; details: dose 25-50 mg/kg
HT-1080 [3] = assay: HIM-PROTAC activity at GPX4/HSP90/E3 ligase in human HT-1080 cells assessed as reduction in GPX4 level at 1 uM incubated for 24 hrs by Western blotting analysis; type: cell-based; design: scale not given: the % may be the effect or the level left
HT-1080 [4] = assay: HIM-PROTAC activity at GPX4/HSP90/E3 ligase in human HT-1080 cells assessed as reduction in GPX4 level at 1 uM preincubated with MG132 for 2 hrs followed by compound addition and measured after 24 hrs by Western blotting analysis; type: cell-based
HT-1080 [5] = assay: Induction of ferroptosis in human HT-1080 cells assessed as increase in lipid peroxidation by measuring fluorescence intensity at 1 uM incubated for 12 hrs in presence of Fer-1 by C11-BODIPSY 581/591 staining based flow cytometry analysis; type: functional, cell-based
HT-1080 [6] = assay: HIM-PROTAC activity at GPX4/HSP90/E3 ligase in human HT-1080 cells assessed as reduction in GPX4 level at 1 uM preincubated with 6-chloro-9-((4-methoxy-3,5-dimethylpyridin-2-yl)methyl)-9H-purin-2-amine for 2 hrs followed by compound addition and measured after 24 hrs by Western blotting analysis; type: cell-based
HT-1080 [7] = assay: Induction of ferroptosis in human HT-1080 cells assessed as ruptured mitochondria at 1 uM incubated for 24 hrs by TEM analysis; type: functional, cell-based
HT-1080 [8] = assay: Induction of ferroptosis in human HT-1080 cells assessed as increase in ROS level at 1 uM incubated for 24 hrs by DCFH-DA staining based confocal laser scanning microscopic analysis; type: functional, cell-based
[9] = Toxicity in BALB/c mouse xenografted with human HT-1080 cells assessed as reduction in body weight at 25 to 50 mg/kg, ip administered once daily; type: organism-based; details: in vivo, dose 25-50 mg/kg
HT-1080 [10] = assay: Upregulation of HMOX1 protein level in human HT-1080 cells at 1 uM incubated for 24 hrs by proteomics analysis; type: functional, cell-based
HT-1080 [11] = assay: Upregulation of GPX4 protein level in human HT-1080 cells at 1 uM incubated for 4 hrs by Western blotting analysis; type: functional, cell-based
HT-1080 [12] = assay: Induction of ferroptosis in human HT-1080 cells assessed as increase in Fe2+ level at 1 uM incubated for 24 hrs by FerroOrange staining based confocal laser scanning microscopic analysis; type: functional, cell-based
[13] = Half-life in ICR mouse at 25 mg/kg, ip measured upto 24 hrs by LC-MS/MS analysis; type: ADME, organism-based; details: in vivo
Mus musculus [14] = assay: Downregulation of GPX4 level in ip dosed BALB/c mouse xenografted with human HT-1080 cells administered once daily by immunohistochemistry analysis; type: functional, organism-based; details: dose 25-50 mg/kg
Mus musculus [15] = assay: Upregulation of 4-HNE level in ip dosed BALB/c mouse xenografted with human HT-1080 cells administered once daily by immunohistochemistry analysis; type: functional, organism-based; details: dose 25-50 mg/kg
HT-1080 [16] = assay: HIM-PROTAC activity at GPX4/HSP90/E3 ligase in human HT-1080 cells assessed as reduction in GPX4 level at 1 uM preincubated with 2-chloro-N-(3-chloro-4-methoxyphenyl)-N-(2-oxo-2-(phenethylamino)-1-(thiophen-2-yl)ethyl)acetamide for 2 hrs followed by compound addition and measured after 24 hrs by Western blotting analysis; type: cell-based
HT-1080 [17] = assay: Cytotoxicity against human HT-1080 cells incubated for 48 hrs in presence of Fer-1 by CCK-8 assay; type: functional, cell-based; details: HT-1080, 48 h
HT-1080 [18] = assay: Induction of ferroptosis in human HT-1080 cells assessed as increase in lipid peroxidation by measuring fluorescence intensity incubated for 12 hrs by C11-BODIPSY 581/591 staining based flow cytometry analysis; type: functional, cell-based; details: dose 0.1-3 µM
HT-1080 [19] = assay: Induction of ferroptosis in human HT-1080 cells assessed as broken mitochondrial outer membrane at 1 uM incubated for 24 hrs by TEM analysis; type: functional, cell-based
Mus musculus [20] = assay: Downregulation of GPX4 protein level in BALB/c mouse tumor xenografted with human HT-1080 cells at 50 to 100 mg/kg, ip measured upto 36 hrs; type: functional, organism-based; details: dose 50-100 mg/kg
[21] = AUCinfinity in ICR mouse at 25 mg/kg, ip measured upto 24 hrs by LC-MS/MS analysis; type: ADME, organism-based; details: in vivo
HT-1080 [22] = assay: HIM-PROTAC activity at GPX4/HSP90/E3 ligase in human HT-1080 cells assessed as reduction in GPX4 level at 0.1 to 3 uM incubated for 24 hrs by Western blotting analysis; type: cell-based; details: dose 0.1-3 µM
[23] = Toxicity in BALB/c mouse xenografted with human HT-1080 cells assessed as animal death at 50 mg/kg, ip administered once daily measured after 10 days; type: organism-based; details: in vivo, 240 h, time 10 day
HT-1080 [24] = assay: Induction of ferroptosis in human HT-1080 cells assessed as reduction in mitochondrial crests at 1 uM incubated for 24 hrs by TEM analysis; type: functional, cell-based
[25] = Cmax in ICR mouse at 25 mg/kg, ip measured upto 24 hrs by LC-MS/MS analysis; type: ADME, organism-based; details: in vivo
HT-1080 [26] = assay: Induction of HSP90/GPX4 protein protein interaction in human HT-1080 cells assessed as ternary complex formation at 5 uM incubated for 12 hrs by co-immunoprecipitation method; type: cell-based; details: filed as activator
[27] = Toxicity in BALB/c mouse xenografted with human HT-1080 cells assessed as change in spleen morphology at 25 to 50 mg/kg, ip administered once daily by H and E staining based assay; type: organism-based; details: in vivo, dose 25-50 mg/kg
HT-1080 [28] = assay: Induction of ferroptosis in human HT-1080 cells assessed as increase in HMOX1 protein level after 24 hrs by Western blotting analysis; type: functional, cell-based; details: dose 0.1-3 µM
HT-1080 [29] = assay: HIM-PROTAC activity at GPX4/HSP90/E3 ligase in HSP90-knockdown human HT-1080 cells assessed as GPX4 degradation at 0.3 to 1 uM incubated for 24 hrs by Western blotting analysis; type: cell-based; details: dose 0.3-1 µM
Mus musculus [30] = assay: Effect on HSP90 level in BALB/c mouse xenografted with human HT-1080 cells at 25 to 50 mg/kg, ip administered once daily by immunohistochemistry analysis; type: functional, organism-based; details: dose 25-50 mg/kg
[31] = Toxicity in BALB/c mouse xenografted with human HT-1080 cells assessed as change in kidney morphology at 25 to 50 mg/kg, ip administered once daily by H and E staining based assay; type: organism-based; details: in vivo, dose 25-50 mg/kg
HT-1080 [32] = assay: HIM-PROTAC activity at GPX4/HSP90/E3 ligase in human HT-1080 cells assessed as reduction in GPX4 level at 1 uM incubated for 12 hrs by Western blotting analysis; type: cell-based
HT-1080 [33] = assay: Induction of ferroptosis in human HT-1080 cells assessed as fold increase in cytotoxic IC50 incubated for 48 hrs in presence of Fer-1 by CCK-8 assay; type: functional

SMILES | DC50 [1] | Activity (B16-F10) | Activity (HT-1080 [2]) | Activity (HT-1080 [3]) | Activity (HT-1080 [4]) | Activity (HT-1080 [5]) | Activity (HT-1080 [6]) | Activity (HT-1080 [7]) | Activity (HT-1080 [8]) | Activity [9] | Activity (HT-1080 [10]) | Activity (HT-1080 [11]) | Activity (HT-1080 [12]) | half-life [13] | Activity (Mus musculus [14]) | Activity (Mus musculus [15]) | Activity (HT-1080 [16]) | IC50 (HT-1080 [17]) | Activity (HT-1080 [18]) | Activity (HT-1080 [19]) | further results
COc1c(C)cnc(Cn2cnc3c(NCCC4CCN(C(=O)Cn5cc(COc6ccc(N(C(=O)CCl)C(C(=O)NCCc7ccccc7)c7cccs7)cc6Cl)nn5)CC4)nc(N)nc32)c1C (stereo not drawn) | 80 nM | Active | Dose-Dependent Effect | 100% | inactive | inactive | inactive | Active | Active | Toxic | Active | Active | Active | 300 min | Dose-Dependent Effect | Dose-Dependent Effect | inactive | 35.5 µM | Dose-Dependent Effect | Active | Activity (Mus musculus [20]): Active; AUC(0-inf) [21]: 346 ng·h/mL; Activity (HT-1080 [22]): Active; Activity [23]: Non-Toxic; Activity (HT-1080 [24]): Active; Cmax [25]: 53.1 ng/mL; Activity (HT-1080 [26]): Active; Activity [27]: Non-Toxic; Activity (HT-1080 [28]): Dose-Dependent Effect; Activity (HT-1080 [29]): inactive; Activity (Mus musculus [30]): inactive; Activity [31]: Non-Toxic; Activity (HT-1080 [32]): Active; fold change (FC) (HT-1080 [33]): 45
COc1c(C)cnc(Cn2cnc3c(NCCOCCOCCOCCn4cc(COc5ccc(N(C(=O)CCl)C(C(=O)NCCc6ccccc6)c6cccs6)cc5Cl)nn4)nc(N)nc32)c1C (stereo not drawn) | 180 nM | Active | Dose-Dependent Effect | 100% | inactive | inactive | inactive | Active | Active | Toxic | Active | Active | Active | 330 min | Dose-Dependent Effect | Dose-Dependent Effect | inactive | 4.4 µM | Dose-Dependent Effect | Active | Activity (Mus musculus [20]): Active; AUC(0-inf) [21]: 1030 ng·h/mL; Activity (HT-1080 [22]): Active; Activity [23]: Non-Toxic; Activity (HT-1080 [24]): Active; Cmax [25]: 139 ng/mL; Activity (HT-1080 [26]): Active; Activity [27]: Non-Toxic; Activity (HT-1080 [28]): Dose-Dependent Effect; Activity (HT-1080 [29]): inactive; Activity (Mus musculus [30]): inactive; Activity [31]: Non-Toxic; Activity (HT-1080 [32]): Active; fold change (FC) (HT-1080 [33]): 2
